The text below walks through data of ChEMBL document CHEMBL4257567, “Design of novel lipidated peptidomimetic conjugates for targeting EGFR heterodimerization in HER2 + cancer” (Bioorg Med Chem Lett, 2018).

Calls of active or inactive are those of the source. The rule behind the calls is not given here. Where a SMILES comes first, the peptide text is derived from it. The star is where a group is joined. 6FAM = O=C1OC2(c3ccc(O)cc3Oc3cc(O)ccc32)c2cc(C(=O)*)ccc21; Stearoyl = CCCCCCCCCCCCCCCCCC(=O)*

The target in series [1] is Receptor tyrosine-protein kinase erbB-2 (Homo sapiens) (UniProt P04626). In words: Binding affinity to HER2 in human BT474 cells at 0.5 uM after 30 mins by DAPI staining based microscopic method. It is filed as cell-based.
Series [2] shares this target. In words: Binding affinity to HER2 in human BT474 cells assessed as receptor internalization at 0.5 uM after 2 hrs by DAPI/Lysotracker staining based microscopic method. It is filed as cell-based.
For series [3], the system named is BT-474. In words: Antiproliferative activity against human BT474 cells after 72 hrs by CellTiter-Glo assay. It counts as functional, cell-based. The following applies: BT-474, 72 h.
The subject of series [4] is Calu-3. In words: Antiproliferative activity against human Calu3 cells after 72 hrs by CellTiter-Glo assay. It is filed as functional, cell-based. To be noted: Calu-3, 72 h. In general terms: In ATP-based viability assays light output follows the ATP content of the culture.
Series [5] concerns A549. Put plainly: Antiproliferative activity against human A549 cells after 72 hrs by CellTiter-Glo assay. It is filed as functional, cell-based. The following applies: A549, 72 h.
Series [6] relates to MCF7. In words: Antiproliferative activity against human MCF7 cells after 72 hrs by CellTiter-Glo assay. It is filed as functional, cell-based. To be noted: MCF7, 72 h.
The subject of series [7] is MCF-10A. In words: Antiproliferative activity against human MCF10A cells after 72 hrs by CellTiter-Glo assay. It is filed as cell-based.
Series [8] concerns the target Receptor tyrosine-protein kinase erbB-2 (Homo sapiens) (UniProt P04626). In words: Inhibition of FITC-aminocaproic acid-Arg-(S)Anapa-Phe-OH binding to HER2 domain-4 in human BT474 cells after 45 mins by fluorescence assay. It counts as cell-based.
Series [9] has the same target. Put plainly: Inhibition of Stearic acid-Gly-Arg-(S)Anapa-Phe-Asp-Gly-Gly-Gly-Lys-OH (FAM Lys side chain) binding to HER2 domain-4 in human BT474 cells after 45 mins by fluorescence assay. It counts as cell-based.
Series [10] has the same target. Put plainly: Inhibition of Stearic acid-Gly-Arg-(S)Anapa-Phe-Asp-Gly-Gly-Gly-Lys-OH (FAM Lys side chain) binding to HER2 domain-4 in human BT474 cells at 0.5 to 100 uM after 1 hr by DAPI staining based microscopic method. It is filed as cell-based.
The target is the same in series [11]. In words: Binding affinity to HER2 extracellular domain (unknown origin) by SPR analysis. A general note: In SPR one partner is held on a chip, and binding of the other changes the refractive index at the surface.
Series [12] shares this target. Put plainly: Binding affinity to HER2 in human BT474 cells assessed as inhibition of HER2:HER3 heterodimerization at 1 to 5 uM after 48 hrs by DAPI staining based proximity ligation assay. It counts as cell-based.
Series [13] can be described thus: Stability in human serum after 24 hrs by HPLC analysis. It counts as ADME, cell-free.
The nature of series [14]: Half life in human serum by HPLC analysis. It counts as ADME, cell-free.
Series [15] can be described thus: Stability in human serum after 24 hrs by MALDI-TOF-MS analysis. It is filed as ADME, cell-free.
Series [16] deals with Receptor tyrosine-protein kinase erbB-2 (Homo sapiens) (UniProt P04626). In words: Inhibition of FITC-aminocaproic acid-Arg-(S)Anapa-Phe-OH binding to HER2 domain-4 in human BT474 cells at 0.5 to 200 uM after 45 mins by fluorescence assay. It counts as cell-based.
Series [17] shares this target. In words: Binding affinity to HER2 extracellular domain (unknown origin) at 25 to 100 uM by SPR analysis.

Chain of Receptor tyrosine-protein kinase erbB-2 (Homo sapiens) (P04626 whole entry, the tested form may be a part): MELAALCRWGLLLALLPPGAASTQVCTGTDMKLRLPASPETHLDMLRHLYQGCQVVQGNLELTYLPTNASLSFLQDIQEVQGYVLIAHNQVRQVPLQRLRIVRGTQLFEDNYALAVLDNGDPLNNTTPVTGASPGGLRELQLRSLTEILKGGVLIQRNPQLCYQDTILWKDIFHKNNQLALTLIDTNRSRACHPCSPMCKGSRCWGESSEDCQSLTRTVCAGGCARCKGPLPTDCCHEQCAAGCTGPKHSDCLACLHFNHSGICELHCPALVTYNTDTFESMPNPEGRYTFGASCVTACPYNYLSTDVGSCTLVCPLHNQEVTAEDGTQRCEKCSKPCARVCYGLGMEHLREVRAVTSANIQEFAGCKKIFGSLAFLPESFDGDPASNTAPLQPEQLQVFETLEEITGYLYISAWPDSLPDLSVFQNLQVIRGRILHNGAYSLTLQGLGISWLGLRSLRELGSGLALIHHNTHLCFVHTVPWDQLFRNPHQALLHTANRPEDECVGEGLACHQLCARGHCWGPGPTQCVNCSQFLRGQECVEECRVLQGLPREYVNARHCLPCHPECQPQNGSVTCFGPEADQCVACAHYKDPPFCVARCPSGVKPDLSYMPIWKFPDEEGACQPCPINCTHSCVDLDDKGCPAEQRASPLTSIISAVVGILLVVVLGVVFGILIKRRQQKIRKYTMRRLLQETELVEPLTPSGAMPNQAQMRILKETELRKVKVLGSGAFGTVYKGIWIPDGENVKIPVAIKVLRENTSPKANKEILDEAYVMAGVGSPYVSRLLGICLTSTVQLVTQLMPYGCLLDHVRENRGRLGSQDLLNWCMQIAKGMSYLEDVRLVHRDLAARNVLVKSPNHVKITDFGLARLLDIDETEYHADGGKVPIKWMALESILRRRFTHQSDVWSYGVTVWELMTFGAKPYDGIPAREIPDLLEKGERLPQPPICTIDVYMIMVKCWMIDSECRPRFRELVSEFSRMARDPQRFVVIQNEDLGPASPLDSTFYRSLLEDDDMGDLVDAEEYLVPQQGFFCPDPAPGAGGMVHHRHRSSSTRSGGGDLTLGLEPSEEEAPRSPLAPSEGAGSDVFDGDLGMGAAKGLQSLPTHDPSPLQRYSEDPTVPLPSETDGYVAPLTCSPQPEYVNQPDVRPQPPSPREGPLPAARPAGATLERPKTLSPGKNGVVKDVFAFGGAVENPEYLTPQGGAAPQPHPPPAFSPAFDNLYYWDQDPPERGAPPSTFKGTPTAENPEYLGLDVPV

Turning to `CCCCCCCCCCCCCCCCCC(=O)NCC(=O)N[C@@H](CCCNC(=N)N)C(=O)N[C@@H](C)C(=O)N[C@@H](C)C(=O)N[C@@H](CC(C)C)C(=O)NCC(=O)NCC(=O)NCC(=O)N[C@@H](CCCCNC(=O)c1ccc2c(c1)C1(OC2=O)c2ccc(O)cc2Oc2cc(O)ccc21)C(=O)O` (Stearoyl-GRAALGGGK(6FAM)-OH), the result in series [1] and in [2] was inactive.

On to `CCCCCCCCCCCCCCCCCC(=O)N[C@@H](CCCNC(=N)N)C(=O)N[C@@H](CC(=O)N[C@@H](Cc1ccccc1)C(=O)O)c1cccc2ccccc12`, for which the IC50 was 1 µM in series [3]; 1.46 µM in series [4]; 1.17 µM in series [5]; > 35 µM in series [6]; > 35 µM in [7]. For the same compound, the inhibition entry in series [8] and in [9] was “Dose-dependent effect” each time. Moreover, the inhibition entry in series [10] and in series [12] was “Active” throughout. For the same compound, the Activity entry in series [11] is “Dose-dependent effect”. Besides, the Stability result in [13] and in series [15] was “Stable” each time. In addition, in series [14], the half-life is 5 h.

`CCCCCCCCCCCCCCCCCC(=O)N[C@@H](CCCNC(=N)N)C(=O)N[C@@H](CC(=O)N[C@@H](CCCCN)C(=O)O)c1cccc2ccccc12` showed an IC50 in [3] of 1.2 µM.

On to `NCCCC[C@H](N)C(=O)Nc1cccc(-c2ccccc2)c1CCC(=O)N[C@@H](Cc1ccccc1)C(=O)O`, for which the IC50 in series [3], in [4], in series [5] and in series [6] was > 35 µM each time. In addition, the inhibition entry in series [16] is “inactive”. Further, the outcome in series [17] was inactive.

In [3], `CCCCCCCCCCCCCCCC(=O)N[C@@H](CCCNC(=N)N)C(=O)N[C@@H](CC(=O)N[C@@H](CCCCN)C(=O)O)c1cccc2ccccc12` came in with an IC50 of 1.4 µM.

As to `CCCCCCCCCCCCCCCC(=O)N[C@@H](CCCNC(=N)N)C(=O)N[C@@H](CC(=O)N[C@@H](Cc1ccccc1)C(=O)O)c1cccc2ccccc12`, the IC50 in series [3] is 1.4 µM; in series [4] it was 1.56 µM; in series [5], 1.01 µM; in series [6] it was > 35 µM; in series [7] it was > 35 µM.

Broadly, the IC50 is the concentration needed to halve the response being measured. As a reminder, the half-life is how long it takes for the measured level to halve. Read a low half-life as rapid decline.
